Measured values from patent publication US6583149B1, “Method for the treatment or prevention of viral infection using nucleoside analogues” (BioChem Pharma Inc., priority 1999, dated 2003).
Where two headings read alike, the source gives them in different places.

Experiments:
HCMV = test: CMV plaque reduction assay in Hs68 cells; format: cell-based, human cytomegalovirus; conditions: 8 days, read-out: HCMV-1 IC50
Procedure: In 12-well tissue culture dishes, 1.5×10E5 or Hs68 cells (human […] fibroblast cell line) were plated per well with 2 ml of DMEM 10% fetal bovine serum and incubated in 5% CO2/air at 37° C. overnight or until cells were ready. The medium was then removed and the cells inoculated with 0.5 ml (containing 200 pfu/ml diluted in DMEM 2% FBS) of HCMV virus in each well. After adsorption at 37° C. for 2 hours, the virus was removed and cell monolayers were overlaid (1 ml) with DMEM 2% FBS containing test compounds at various concentrations. The cells were then incubated at 37° C. for 8 days, and then fixed with one volume (1 ml) of formaldehyde 8%/water or PBS 1× for 30 minutes. The formaldehyde solution was removed and the cell monolayers were stained with crystal violet 2%/EtOH 20% for a few seconds and then rinsed with water. Monolayers were examined for the presence of plaques under a microscope, the percentage of plaque reduction determined for each compound by comparison with the untreated cells (no test compound) and the 50% inhibitory concentration (IC50) established. DHPG was used as a positive control. Note: DMEM medium contained 1% glutamine and 1% pen/strep

HSV-1 = test: Herpes simplex virus plaque reduction assay in Vero34 cells; format: cell-based; conditions: Human alphaherpesvirus 1, 72 h, 3 days
Procedure: In 12 wells tissue culture dishes, 2×10^5 Vero34 cells were seeded in 2 mls of DMEM supplemented with 10% […]. The plate was incubated in 5% CO2/air at 37° C. overnight. The medium was removed and cells were inoculated with 200 PFU of HSV-1 diluted in a final volume of 0.5 ml DMEM supplemented with 2% FES. After adsorption at 37° C. for 1 hour, the viruses were removed and the cell monolayers were overlaid with 1 ml of DMEM-2% FES containing the test compound at final concentrations of 0.1, 1.0, 10, and 50 ug/ml. Acyclovir was used as a positive control. Uninfected and infected untreated monolayers were also included in the assay as controls. All compounds were tested in duplicates. After an incubation at 37° C. in 5% CO2/air for 3 days, cells were fixed with the addition of one volume of formaldehyde 8%/water for 30 min. The formaldehyde/medium was removed and the monolayers were stained with crystal violet 2%/ethanol 20% for few sec. The cells were rinsed with tap water and the monolayers were examined for the presence of plaques under a microscope.

Vero34 cells = format: cell-based; conditions: African green monkey, 48 h
Procedure: The CD50 value (cytotoxic dose at 50%) was assessed on virus-free control layers of cells to assess the toxicity of the compounds.
Flat bottom 96 well plates were plated with 5×1OE3 Vero-34 cells/well and 1×10E4 Hs-68 or Wi-38 cells/well respectively and incubated overnight at 37° C. and 5% CO2/air. After incubation, the supernatant medium was removed and replaced with test compound dilutions in 2% DMEM (150 ul). The cells were then incubated 48 hours in a 5% CO2 incubator at 37° C.
50 μl/well of 10 uCi/ml solution of [3H]-methyl thymidine (specific activity of approx. 2 Ci/mmol) was added to the culture medium and incubated overnight (18 hours) in a 5% CO2 incubator at 37° C.
Cells were then collected onto a fiberglass filter (Printed Filtermat A 1450-421 Wallac) with a Tomtec cell harvester. Suspended cells were collected directly onto filter while for adherent cells, the medium was first removed, then the cells washed with PBS and trypsinized for 2-3 minutes (50 μl trypsin/well) before collecting.
Filters were dried for 1 hour at 37-40° C. and then placed into bags (1450-microbeta #1450-432 Wallac) with 4.5 ml of Betascint and counts obtained with Microbeta 1450 Wallac (protocol 1).
(§1) The percent of cell proliferation was determined by comparison to the control (no test compound) and thereby establishing 50% inhibitory concentration is established.

Hs68 cells = test: Toxicity (CD50) reported with the CMV assay; format: cell-based, human; conditions: reported with HCMV assay
Procedure: Cells were then collected onto a fiberglass filter (Printed Filtermat A 1450-421 Wallac) with a Tomtec cell harvester.
as §1

RSV and CMV viruses = test: Case report: immune suppressed leukemia patient with RSV and CMV pneumonias in troxacitabine phase I study; format: in vivo, human; conditions: one elderly patient with relapsed resistant acute myeloid leukemia, also treated for RSV and CMV infections
Procedure: An elderly patient with relapsed resistant acute myeloid leukemia was entered in a troxacitabine (compound #1) as phase I Leukemia study. In the early part of the therapy, the patient, known to be immune suppressed, developed severe pneumonias. […] The patient to was maintained in the troxacitabine study and was treated for RSV and CMV viral infections.

Nc1nc2c(ncn2COC(CO)CO)c(=O)[nH]1 [DHPG, reference compound]
IC50 (HCMV): 9.8 µM

Nc1ccn([C@@H]2CO[C@H](CO)O2)c(=O)n1 [COMPOUND #1, (−)-cis-2-Hydroxymethyl-4-(cytosin-1′-yl)-1,3-dioxolane]
IC50 (HSV-1): 1.7 µM | toxicity CD50 (Vero34 cells): >50 µM | toxicity CD50 (Hs68 cells): >50 µM | IC50 (HCMV; Human betaherpesvirus 5, 192 h): 0.7 µM | Clinical outcome of viral pneumonias (RSV and CMV) (RSV and CMV viruses): did recover from their pneumonias

Nc1nc2c(ncn2COCCO)c(=O)[nH]1 [ACYCLOVIR, reference compound]
IC50 (HSV-1): 13.3 µM | toxicity CD50 (Vero34 cells): >13.3 µM

Nc1ncn([C@@H]2CO[C@H](CO)O2)c(=O)n1 [COMPOUND #3, (−)cis-2-Hydroxymethyl-4-(5′-azacytosin-1′-yl)-1,3-Dioxolane]
IC50 (HSV-1): 47 to 234 µM
